Measured values published in patent US7932273B2, “3-[(2-{[4-(hexyloxycarbonylaminoiminomethyl) phenylamino]methyl}-1-methyl-1H-benzimidazol-5-carbonyl)pyridin-2-ylamino]propionic acid ethylester methansulfonate and its use as a medicament” (Boehringer Ingelheim International GmbH, priority 2003, dated 2011).

Experiments:
Assay type in all cases: physicochemical
[1] = amorphization during grinding and compression; conditions: all three crystalline modifications
[2] = hygroscopicity of the crystalline modifications; conditions: in all three crystalline modifications (form I, form II, hemihydrate)
[3] = solubility in physiologically acceptable acid aqueous media; conditions: all three crystalline modifications

Which results are given for `CCCCCCOC(=O)NC(=N)c1ccc(NCc2nc3cc(C(=O)N(CCC(=O)OCC)c4ccccn4)ccc3n2C)cc1` [methanesulfonate, ethyl 3-[(2-{[4-(hexyloxycarbonylaminoimino-methyl)phenylamino]methyl}-1-methyl-1H-benzimidazole-5-carbonyl)pyridin-2-ylamino]propionate methanesulfonate]?
amorphization [1]: low amorphization; hygroscopicity [2]: non-hygroscopic; solubility [3]: dissolves very easily
